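Tested at 5 concentrations; 48 h exposure; 96-well plates; endpoints linearly interpolated, else capped at highest concentration. At the GI50, growth is halved. At the TGI there is no net growth.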
Assays:
Test in all cases: DTP human tumour cell line panel, 48 h
HOP-92 NSCLC = test system: HOP-92 NSCLC
A549 NSCLC = test system: A549 NSCLC
SF-295 CNS = test system: SF-295 CNS
CAKI-1 renal = test system: CAKI-1 renal
UACC-257 melanoma = test system: UACC-257 melanoma
SW-620 colon = test system: SW-620 colon
NCI-H460 lung = test system: NCI-H460 lung
BT-549 breast = test system: BT-549 breast
HS 578T breast = test system: HS 578T breast
MDA-MB-231 breast = test system: MDA-MB-231 breast

Compound | TGI (HOP-92 NSCLC) [µM] | TGI (A549 NSCLC) [µM] | TGI (SF-295 CNS) [µM] | TGI (CAKI-1 renal) [µM] | TGI (UACC-257 melanoma) [µM] | TGI (SW-620 colon) [µM] | TGI (NCI-H460 lung) [µM] | GI50 (BT-549 breast) [µM] | TGI (BT-549 breast) [µM] | GI50 (HOP-92 NSCLC) [µM] | GI50 (HS 578T breast) [µM] | TGI (HS 578T breast) [µM] | GI50 (MDA-MB-231 breast) [µM] | TGI (MDA-MB-231 breast) [µM] | GI50 (NCI-H460 lung) [µM] | GI50 (A549 NSCLC) [µM] | GI50 (SF-295 CNS) [µM] | GI50 (CAKI-1 renal) [µM] | GI50 (UACC-257 melanoma) [µM] | GI50 (SW-620 colon) [µM]
CCOc1ccc(NC(=O)CC2SC(=Nc3ccc(C)cc3C)NC2=O)cc1 (stereo not drawn) | > 100 | > 100 | > 100 | > 100 | > 100 | > 100 | > 100 |  |  |  |  |  |  |  |  |  |  |  |  | 
O=Cc1cc2c(cc1-c1cc3c(cc1C=O)OCO3)OCO2 | > 100 | > 100 | > 100 | > 100 | > 100 | > 100 | > 100 |  |  |  |  |  |  |  |  |  |  |  |  | 
Cc1cc2c(cc1C)[n+](=O)cc(C(=O)C/C(=N/NC(=S)NN)C(=O)Nc1cccc(C(F)(F)F)c1)n2[O-] | > 100 | > 100 | > 100 | > 100 | > 100 | > 100 | > 100 |  |  |  |  |  |  |  |  |  |  |  |  | 
O=C(c1ccc([N+](=O)[O-])cc1[N+](=O)[O-])N(/N=C/C=C/c1ccccc1)c1nnc(-c2ccccc2)c(-c2ccccc2)n1 | 51.2 | > 100 | > 100 | 79.6 | > 100 | > 100 | > 100 |  |  |  |  |  |  |  |  |  |  |  |  | 
CC12c3ccccc3C(OC=O)(c3ccccc31)C1(C)c3ccccc3C2(OC=O)c2ccccc21 | > 100 | > 100 | > 100 | > 100 | > 100 | > 100 | > 100 |  |  |  |  |  |  |  |  |  |  |  |  | 
Cc1nc2c(N)ncnc2o1 | > 100 | > 100 | > 100 | > 100 | > 100 | > 100 | > 100 |  |  |  |  |  |  |  |  |  |  |  |  | 
COC(=N)c1csc(C2OC(CO)C(O)C2O)n1 (stereo not drawn) | > 100 | > 100 | > 100 | > 100 | > 100 | > 100 | > 100 |  |  |  |  |  |  |  |  |  |  |  |  | 
COC(=O)c1c2c(c(C)[n+]([O-])c1C)C(=O)C(NCc1ccc(Br)cc1)=CC2=O | 7.15 |  |  |  |  |  | > 100 | 1.73 | 3.52 | 3.07 | 2.64 | 9.94 | 1.41 | 5.51 | 1.86 |  |  |  |  | 
CCOc1ccc(OCC(=O)O)c2c1CCCC2=O | > 100 | > 100 | > 100 |  | > 100 | > 100 | > 100 |  |  |  |  |  |  |  |  |  |  |  |  | 
CCSc1nc(N=Cc2ccccc2O)c2cn[nH]c2n1 |  | > 100 | 80.2 | 82.4 | > 100 | > 100 | > 100 | 40.6 | > 100 |  | 20.9 | 69.2 | 12.7 | > 100 | 30.7 | 46.2 | 23.9 | 19.3 | 56.7 | 38.4
O=[N+]([O-])c1cccnc1N=Nc1c(O)[nH]c2ccccc12 | > 100 | 47.7 | 38.7 |  | 44.6 | 87.8 | 35.9 |  | 25.4 |  |  | > 100 |  | > 100 |  |  |  |  |  | 
O=C1C=C(Nc2ccc(Cl)cc2C(=O)c2ccccc2)c2ccccc2C1=O |  | > 100 | > 100 | > 100 | > 100 | > 100 | > 100 |  |  |  |  |  |  |  |  |  |  |  |  | 

Source: PubChem BioAssay (NCI)
